Laboratory results taken from EP0753512B1, “N,N,-diethyl-8,8-dipropyl-2-azaspiro[4.5]decane-2-propanamin] dimaleate salt” (AnorMED Inc, priority 1995, dated 1997).

How the values were obtained:
[1] = Relative solubilities in water, HCl and methanol; type: physicochemical
[2] = Hygroscopicity: rate of moisture absorption, Integrated Microbalance System; type: physicochemical; details: for % Weight Gain (Moisture Absorption): 25 °C; for hygroscopicity: statement in words, upon storage
Description: The rate of moisture absorption of Compound B and Compound C were tested individually in an Integrated Microbalance System, MODEL MB 300 G (VTI Corporation, Hialeah, Florida) using the accompanying Software Manual. Table 2(a) [table]

[3] = organic solvent or mixture, Solvent: methanol

| SMILES | solubility ([1]; Solvent: 0.1% HCl) [mg/mL] | solubility ([1]; Solvent: Water) [mg/mL] | solubility [1, 3] [mg/mL] | % Weight Gain (Moisture Absorption) ([2]; 0 % relative humidity) [%] | % Weight Gain (Moisture Absorption) ([2]; 10 % relative humidity) [%] | % Weight Gain (Moisture Absorption) ([2]; 15 % relative humidity) [%] | % Weight Gain (Moisture Absorption) ([2]; 20 % relative humidity) [%] | % Weight Gain (Moisture Absorption) ([2]; 25 % relative humidity) [%] | % Weight Gain (Moisture Absorption) ([2]; 30 % relative humidity) [%] | % Weight Gain (Moisture Absorption) ([2]; 35 % relative humidity) [%] | % Weight Gain (Moisture Absorption) ([2]; 40 % relative humidity) [%] | % Weight Gain (Moisture Absorption) ([2]; 45 % relative humidity) [%] | % Weight Gain (Moisture Absorption) ([2]; 50 % relative humidity) [%] | % Weight Gain (Moisture Absorption) ([2]; 55 % relative humidity) [%] | % Weight Gain (Moisture Absorption) ([2]; 60 % relative humidity) [%] | % Weight Gain (Moisture Absorption) ([2]; 65 % relative humidity) [%] | % Weight Gain (Moisture Absorption) ([2]; 70 % relative humidity) [%] | % Weight Gain (Moisture Absorption) ([2]; 75 % relative humidity) [%] | % Weight Gain (Moisture Absorption) ([2]; 80 % relative humidity) [%] | % Weight Gain (Moisture Absorption) ([2]; 85 % relative humidity) [%] | further results |
| --- | --- | --- | --- | --- | --- | --- | --- | --- | --- | --- | --- | --- | --- | --- | --- | --- | --- | --- | --- | --- | --- |
| CCCC1(CCC)CCC2(CCN(CCCN(CC)CC)C2)CC1.O=C(O)/C=C\C(=O)O.O=C(O)/C=C\C(=O)O [Compound C, N,N-diethyl-8,8-dipropyl-2-azaspiro[4.5]decane-2-propanamine dimaleate] | > 100 | > 100 | > 100 | 0 | -0.21 | -0.18 | -0.08 | -0.12 | -0.08 | -0.08 | -0.08 | -0.05 | -0.04 | 0.04 | 0.1 | 0.18 | 0.41 | 0.56 | 0.89 | 1.70 | % Weight Gain (Moisture Absorption) ([2]; 90 % relative humidity): 5.37%; % Weight Gain (Moisture Absorption) ([2]; 95 % relative humidity): 42.88%; hygroscopicity [2]: far less hygroscopic |
| CCCC1(CCC)CCC2(CCN(CCCN(CC)CC)C2)CC1.Cl.Cl [Compound B, N,N-diethyl-8,8-dipropyl-2-azaspiro[4.5]decane-2-propanamine dihydrochloride, reference compound] | > 100 | > 100 | > 100 | 0 | 0.20 | 1.81 | 2.17 | 2.84 | 3.74 | 3.15 | 3.30 | 4.74 | 5.49 | 9.07 | 9.26 | 9.50 | 15.47 | 31.30 | 36.53 | 44.16 | hygroscopicity [2]: hygroscopic |
